Experimental data: article PMC8041284, “Tunable Methacrylamides for Covalent Ligand Directed Release Chemistry” (Journal of the American Chemical Society, 2021)

What follows are compounds tested against BTK (Homo sapiens, UniProt Q06187) (assay: biochemical). Settings: read-out: BTK inhibition (%), 0.75 uM BTK, […] probe 3l, 15 min preincubation.
Chain of BTK (Q06187 402-655 limits assumed): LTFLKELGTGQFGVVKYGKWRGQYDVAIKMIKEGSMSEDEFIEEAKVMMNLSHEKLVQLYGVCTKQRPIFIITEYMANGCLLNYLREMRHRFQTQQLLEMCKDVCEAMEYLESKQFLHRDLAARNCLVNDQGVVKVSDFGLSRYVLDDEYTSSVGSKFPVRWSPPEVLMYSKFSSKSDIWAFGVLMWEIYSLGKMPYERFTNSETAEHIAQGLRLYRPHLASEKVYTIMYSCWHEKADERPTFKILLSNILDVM

inhibition at 10 µM [%]	SMILES
6.9	OCC1(O)OC[C@@H](O)[C@H](O)[C@@H]1O (stereo partly drawn) [PCM-0216581]
-7.7	CC(=O)N[C@@H](CC(=O)O)C(=O)N[C@@H](CCC(=O)O)C(=O)N[C@H](C(=O)N[C@H](C=O)CC(=O)O)C(C)C [PCM-0215827]
-8.5	CCOc1ccccc1N=Nc1c(C)[nH]n(-c2nc(-c3ccccc3)cs2)c1=O [PCM-0215207]
5.4	C=C(C)[C@H]1CC=C(C)CC1 [PCM-0216628]
-2.3	CC(C)(C)c1ccc(S(=O)(=O)NCc2ccc(C(=O)Nc3cccnc3)cc2)cc1 [PCM-0215545]
7.7	CC(C)[C@H](NC(=O)c1ccc2ccccc2n1)C(=O)N[C@@H](CC(=O)O)C(=O)COc1c(F)cccc1F [PCM-0215598]
-9.3	C=C1[C@H](OC(=O)/C=C(\C)CC)C[C@@H](C(C)C)[C@@H]2[C@@H]([C@@H](C)OC(C)=O)C(=O)C[C@@H]12 [PCM-0216448]
-3.9	CC(=O)Oc1ccc(C(=C2CCCCC2)c2ccc(OC(C)=O)cc2)cc1 [PCM-0216241]
23.2	Cc1cccc(C)c1NC(=O)c1cc(S(N)(=O)=O)c(Cl)cc1O [PCM-0215998]
0.8	Cc1ccc(Cl)cc1N(CC(=O)Nc1c(F)cccc1F)S(C)(=O)=O [PCM-0215291]
-1.5	O=C(/C=C/c1ccc(O)cc1)C1=C(O)[C@](O)([C@@H]2O[C@H](CO)[C@@H](O)[C@H](O)[C@H]2O)C(O)=C(/C=C2/C(=O)C(C(=O)/C=C/c3ccc(O)cc3)=C(O)[C@@](O)([C@@H]3O[C@H](CO)[C@@H](O)[C@H](O)[C@H]3O)C2=O)C1=O [PCM-0215966]
20.1	CN(C)C(=S)NN=C(c1ccccn1)c1ccccn1 [PCM-0215522]
11.7	O=C(/C=C/c1ccc2ccccc2n1)c1ccncc1 [PCM-0215310]
32.4	Cn1cc(-c2ccc(S(=O)(=O)n3ccc(/C=C/C(=O)Nc4ccccc4N)c3)cc2)cn1 [PCM-0215419]
-7.7	CC(C)=CCCC(C)CCO (stereo not drawn) [PCM-0216208]
6.8	Cc1ccc(NCCN(C)CCNc2ccnc3cc(Cl)ccc23)c2c(=O)c3ccccc3sc12 [PCM-0215874]
-25.5	C[C@@H]1O[C@@H](O[C@H]2[C@H](O[C@H]3CC[C@@]4(C)[C@@H](CC[C@]5(C)[C@@H]4CC=C4[C@@H]6CC(C)(C)CC[C@]6(C(=O)O[C@@H]6O[C@H](CO[C@@H]7O[C@H](CO)[C@@H](O)[C@H](O)[C@H]7O)[C@@H](O)[C@H](O)[C@H]6O)CC[C@]45C)[C@]3(C)CO)OC[C@H](O)[C@@H]2O)[C@H](O)[C@H](O)[C@H]1O [PCM-0216342]
-2.8	O=c1[nH]ccc2c(S(=O)(=O)N3CCCNCC3)cccc12 [PCM-0215797]
0	C=C1[C@@H]2CC[C@@H](C2)[C@]1(C)CC/C=C(\C)CO [PCM-0216479]
-8.6	CCCCCCCCC(=O)O [PCM-0216031]
-40	Cn1ncc(Cl)c1-c1cc(C(=O)N[C@H](CN)Cc2cccc(F)c2)sc1Cl [PCM-0215459]
-9.3	C=CC[S@+]([O-])C[C@H](N)C(=O)O [PCM-0216303]
-18.7	CCCCCCCCCCCCCC(=O)OCC(COC(=O)CCCCCCCCCCCCC)OC(=O)CCCCCCCCCCCCC [PCM-0216465]

More lines, now with the values behind:

SMILES	inhibition at 10 µM [%]
CN1C(=O)[C@@H](NC(=O)c2cc(Cc3ccccc3)on2)COc2ccccc21 [PCM-0213452]	3.1
CCCCC(=O)O[C@]1(C(=O)CO)[C@@H](C)C[C@H]2[C@@H]3CCC4=CC(=O)C=C[C@]4(C)[C@@]3(F)[C@@H](O)C[C@@]21C [PCM-0095140]	-15.9
OC[C@@H](O)[C@H](O)[C@H](O)[C@@H](O)CO [PCM-0215034]	-10.1
COc1cc2c(c(OC)c1OC)-c1c(cc3c(c1OC)OCO3)CC(C)C(C)C2 (stereo not drawn) [PCM-0214727]	11.7
C[C@@H]1CC[C@@]2(OC1)O[C@H]1C[C@H]3[C@@H]4CC=C5C[C@@H](O[C@@H]6O[C@H](CO)[C@@H](O)[C@H](O[C@@H]7O[C@H](CO)[C@@H](O)[C@H](O)[C@H]7O)[C@H]6O[C@@H]6O[C@@H](C)[C@H](O)[C@@H](O)[C@H]6O)CC[C@]5(C)[C@H]4CC[C@]3(C)[C@H]1[C@@H]2C [PCM-0215006]	-3.1
CC(C)=CCC[C@](C)(O[C@@H]1O[C@H](CO[C@@H]2O[C@H](CO)[C@@H](O)[C@H](O)[C@H]2O)[C@@H](O)[C@H](O)[C@H]1O)[C@H]1CC[C@]2(C)[C@@H]1[C@H](O)C[C@@H]1[C@@]3(C)CC[C@H](O[C@@H]4O[C@H](CO)[C@@H](O)[C@H](O)[C@H]4O[C@@H]4O[C@H](CO)[C@@H](O)[C@H](O)[C@H]4O)C(C)(C)[C@@H]3CC[C@]12C [PCM-0215030]	-0.7
O=C1NC(=O)/C(=C/c2ccc3nccc(-c4ccncc4)c3c2)S1 [PCM-0094973]	14.5
CC(C)CCC[C@@H](C)[C@H]1CC[C@H]2C3=CC=C4C[C@@H](O)CC[C@]4(C)[C@H]3CC[C@]12C [PCM-0216561]	18.5
COc1cc2ncc(-c3ccccc3)nc2cc1OC [PCM-0095612]	-13.8
Cc1cc(/C(O)=C2\C(=O)C(=O)N(CCCN3CCOCC3)C2c2ccncc2)ccc1OCc1ccccc1 (stereo not drawn) [PCM-0215180]	0
CC(O)(CS(=O)(=O)c1ccc(F)cc1)C(=O)Nc1ccc(C#N)c(C(F)(F)F)c1 (stereo not drawn) [PCM-0065600]	11.7
C[C@@H](O)[C@H]1C(=O)N2C(C(=O)OCOC(=O)C(C)(C)C)=C(SC3CN(C4=NCCS4)C3)[C@H](C)[C@H]12 [PCM-0214665]	4.7
CC(=O)O [PCM-0215080]	-2.3
NC(=O)c1cn(Cc2c(F)cccc2F)nn1 [PCM-0065619]	-17.9
OC[C@@H](O)C(O)[C@@H](O)CO (stereo partly drawn) [PCM-0090917]	2.3
OCCc1c[nH]c2ccccc12 [PCM-0215120]	-24.1
NCCS(=O)(=O)O [PCM-0064776]	-6
CCN1CCN(Cc2ccc(-c3cc4c(N[C@H](C)c5ccccc5)ncnc4[nH]3)cc2)CC1 [PCM-0214628]	41.4
CC1=C[C@H]2Cc3[nH]c(=O)ccc3[C@]3(C1)NCCC[C@H]23 [PCM-0216475]	-10
CC(C)S(=O)(=O)c1ccc2nccc(Nc3ccc4scnc4c3)c2c1 [PCM-0213432]	26.2
Clc1ccc(C(Cn2ccnc2)OCc2ccsc2Cl)c(Cl)c1 (stereo not drawn) [PCM-0085844]	-41.2
Nc1nccc(Oc2ccc(NC(=O)c3c[nH]cc(-c4ccc(F)cc4)c3=O)cc2F)c1Cl [PCM-0095240]	68.3
O=C(CCCCCCC(=O)Nc1ccccc1)NO [PCM-0086223]	-9
N#Cc1ccc(Oc2ccc3c(c2)COB3O)cc1 [PCM-0215118]	8.5
C[C@H]1C[C@H]2[C@@H]3CCC4=CC(=O)C=C[C@]4(C)[C@@]3(F)[C@@H](O)C[C@]2(C)[C@@]1(O)C(=O)CO [PCM-0214629]	-6.2

SMILES	inhibition at 10 µM [%]
COc1ccc(C2(C#N)CCC(C(=O)O)CC2)cc1OC1CCCC1 (stereo not drawn) [PCM-0095129]	-29.6
COc1cc2c(cc1OC)[C@@H]1Cc3ccc(OC)c(OC)c3CN1CC2 [PCM-0094863]	3.9
O=C1NC(=O)/C(=C/c2cccc(C(F)(F)F)c2)S1 [PCM-0095598]	4.8
COc1cc2c(N3CCN(C(=O)Nc4ccc(OC(C)C)cc4)CC3)ncnc2cc1OCCCN1CCCCC1 [PCM-0090254]	-17
Cc1cc(C)c(-c2csc(NC(=O)c3ccccc3)n2)c(C)c1 [PCM-0095756]	41.7
CC(C)(CO)c1cc2cc(NC(=O)C3(c4ccc5c(c4)OC(F)(F)O5)CC3)c(F)cc2n1C[C@@H](O)CO [PCM-0095580]	-27.8
CO[C@H]1C(=O)[C@]2(C)[C@@H](OC)C[C@H]3OC[C@@]3(OC(C)=O)[C@H]2[C@H](OC(=O)c2ccccc2)[C@]2(O)C[C@H](OC(=O)[C@H](O)[C@@H](NC(=O)OC(C)(C)C)c3ccccc3)C(C)=C1C2(C)C [PCM-0214715]	-14.8
COC(=O)[C@H](c1ccccc1Cl)N1CCc2sccc2C1 [PCM-0090332]	2.3
Nc1nc(Cl)nc2c1ncn2[C@@H]1O[C@H](CO)[C@@H](O)[C@@H]1F [PCM-0094949]	1.4
CCOC(=O)[C@H](CCc1ccccc1)N[C@H]1CS[C@H](c2cccs2)CN(CC(=O)O)C1=O [PCM-0095261]	-1.6
C=CC(C)(O)CCC=C(C)C (stereo not drawn) [PCM-0091203]	-9.3
Cc1ccc(C(=O)Nc2ccc(CN3CCN(C)CC3)c(C(F)(F)F)c2)cc1C#Cc1cnc2cccnn12 [PCM-0095174]	92.4
C[C@@H]1C(=O)O[C@H]2C[C@@]34[C@H]5C[C@@H](C(C)(C)C)[C@]36[C@@H](OC(=O)[C@@H]6O)O[C@@]4(C(=O)O5)[C@]21O [PCM-0089814]	-7.8
Cn1cnc(=N)c2[nH]cnc21 [PCM-0095527]	-4.8
CN1[C@@H]2CC[C@H]1CC(OC(c1ccccc1)c1ccccc1)C2 (stereo partly drawn) [PCM-0086292]	-3.1
C#C[C@]1(O)CC[C@H]2[C@@H]3CCc4cc(OC)ccc4[C@H]3CC[C@@]21C [PCM-0214662]	8.6
O=C(c1ccc(Nc2nccc(-c3cc4ccccc4s3)n2)cc1)N1CCC(N2CCCC2)CC1 [PCM-0095335]	86.2
Nc1ccc(C(=O)Nc2cccc(-c3nc(N4CCOCC4)c4oc5ncccc5c4n3)c2)cn1 [PCM-0094950]	-4.8
CC(C)(F)C[C@H](N[C@@H](c1ccc(-c2ccc(S(C)(=O)=O)cc2)cc1)C(F)(F)F)C(=O)NC1(C#N)CC1 [PCM-0094912]	-23.3
CC(C)NC[C@@H](C(=O)N1CCN(c2ncnc3c2[C@H](C)C[C@H]3O)CC1)c1ccc(Cl)cc1 [PCM-0095420]	-4.1
Nc1nc(=S)c2[nH]cnc2[nH]1 [PCM-0090185]	-1.6
O=C(O)c1cc(=O)c2c(OCC(O)COc3cccc4oc(C(=O)O)cc(=O)c34)cccc2o1 [PCM-0086401]	2.6
CC(C)(C)c1cc(C(C)(C)C)c(NC(=O)c2c[nH]c3ccccc3c2=O)cc1O [PCM-0094963]	49.8
NC(=O)c1cccc(N)c1 [PCM-0064562]	-3.9
